Measurements: US20240358831A1, “SELECTION OF IMMUNE CELLS USING PEPTIDE MHC COMPLEXES GENERATED BY CONDITIONAL LIGAND EXCHANGE” (IMMATICS US, INC., priority 2021, published 2024)

Tested on: CD8+ T cells
Test: In vitro priming of CD8+ T cells with aAPCs (pHLA/anti-CD28) and pHLA multimer staining
Assay type: cell-based, human
Procedure: To perform in vitro stimulations by artificial antigen-presenting cells (aAPCs) loaded with peptide-HLA complexes (pHLA) and anti-CD28 antibody, the inventors first isolated CD8+ T cells via positive selection using CD8 microbeads (Miltenyi Biotec, Bergisch-Gladbach, Germany) from fresh HLA-matched leukapheresis products of healthy donors obtained from the University clinics Mannheim, Germany, after informed consent.
PBMCs and isolated CD8+ lymphocytes were incubated in T cell medium (TCM) until use consisting of RPMI-Glutamax (Thermo Fisher Scientific, Waltham, USA) supplemented with 10% heat-inactivated human AB serum (CC Pro, Oberdorla, Germany), 100 U/ml Penicillin/100 μg/ml Streptomycin (Biozym, Hessisch Oldendorf, Germany), 1 mM sodium pyruvate (CC Pro, Oberdorla, Germany) and 20 μg/ml Gentamycin (Biozym, Hessisch Oldendorf, Germany). 2.5 ng/ml IL-7 (PromoCell, Heidelberg, Germany) and 10 U/ml IL-2 (Novartis Pharma, Nürnberg, Germany) were also added to the TCM at this step.
The purified co-stimulatory mouse IgG2a anti human CD28 Ab 9.3 (Jung et al., 1987) was chemically biotinylated using sulfo-N-hydroxysuccinimidobiotin as recommended by the manufacturer (Perbio, Bonn, Germany). Beads used were 5.6 μm diameter streptavidin coated polystyrene particles (Bangs Laboratories, Illinois, USA).
800.000 beads/200 μl were coated in 96-well plates in the presence of up to four different biotinylated pHLA complexes (total amount 50 ng/well), washed and 600 ng biotinylated anti-CD28 were added subsequently in a volume of 200 μl/well.
Stimulations were initiated in 96-well plates by co-incubating 1×10^6 CD8+ T cells with 2×10^5 washed aAPCs in 200 μl TCM supplemented with 5 ng/ml IL-12 (PromoCell) for 3 days at 37° C. Half of the medium was then exchanged by fresh TCM supplemented with 80 U/ml IL-2 and incubation was continued for 4 days at 37° C. This stimulation cycle was performed for a total of three times. […]
For the pHLA multimer readout using up to eight different pHLA molecules per condition, a two-dimensional combinatorial coding approach was used as previously described (Andersen et al., 2012a; Andersen et al., 2012b) with minor modifications encompassing coupling to 5 different fluorochromes.
Finally, multimeric analyses were performed by staining the cells with Live/dead near IR dye (Thermo Fisher Scientific, Waltham, USA), CD8-FITC antibody clone SK1 (BD, Heidelberg, Germany) and fluorescent pHLA multimers. […] Peptide-specific cells were calculated as percentage of total CD8+ cells. […] In vitro priming of specific multimer+CD8+ lymphocytes was detected by comparing to negative control stimulations.

## RL(X)VGSIPR [HNRNPR-002]
Stimulated with pHLA obtained after UV exchange A*03:01_HNRNPR-002×HADV-014 (residual UV monomer), three cycles, FIG. 5 B
  UV peptide-specific T cell populations (multimer+ cells among CD8+ cells): 6.7 % of CD8+ cells

## SARPPL(X)SV [MUDENG-002]
Stimulated with standard refolded pHLA B*07:02_MUDENG-002, three cycles of stimulation, FIG. 5 A
  UV peptide-specific T cell populations (multimer+ cells among CD8+ cells): 2.4 % of CD8+ cells

## KILGFVF(X)V [FLUM-003]
After stimulation with A*02:01_FLUM-003×MLA-001, FIG. 3 C+D
  Presence of peptide specific cells by multimer staining (standard refolded multimers): confirmed the presence
Priming with HLA-A*02_FLUM-003×CMV-001, FIG. 6 Plate B, stimulation position 1 and 2
  Detection of conditional ligand specific cells by multimer staining with EC monomers from the same UV monomer: FLUM-003 specific cells were stimulated and detected
